Reference: ChEMBL document CHEMBL1153660, “Synthesis and pharmacological properties of BW315c and other inotropic 2-arylimidazo[1,2-a]pyrazines” (Bioorg Med Chem Lett, 1993)
One block for each compound: values may come before it. Activity calls are given as the source filed them. The calls are words filed in the database; no cut-off is given here.

Tests used:
Canis familiaris [1] = assay: In vivo 50% increase in left ventricular pressure in open chest dogs; type: functional; details: Canis lupus familiaris, Heart left ventricle
Cavia porcellus [2] = species on record: Cavia porcellus; assay: In vitro 50% increase in basal contractile force of paced guinea pig papillary muscle; type: functional, Muscle tissue
Canis familiaris [3] = species on record: Canis familiaris; assay: 10% increase in heart rate in open chest dogs; type: functional; details: Canis lupus familiaris
Phosphodiesterase 3 = Phosphodiesterase 3 (Homo sapiens, UniProt Q14432+Q13370); assay: Concentration of compound required for 50% inhibition of type III cAMP phosphodiesterase from dog ventricles, activity expressed as pIC50; type: protein assay, Canis lupus familiaris
Canis familiaris [4] = species on record: Canis familiaris; assay: 30% decrease in diastolic blood pressure in open chest dogs; type: functional; details: Canis lupus familiaris, Artery
[5] = Ratio of ED50 (increased ventricular pressure) to ED30 (diastolic blood pressure); type: functional, Artery
Canis familiaris [6] = assay: Time required for inotropic response at 0.80 mg/kg dose; type: functional, Canis lupus familiaris; details: dose 0.8 mg/kg
Canis familiaris [7] = assay: Time required for vasodilator response at 0.80 mg/kg dose; type: functional, Canis lupus familiaris; details: dose 0.8 mg/kg
Canis familiaris [8] = assay: Time required for vasodilator response at 0.80 mg/kg dose; range 10-30; type: functional, Canis lupus familiaris; details: dose 0.8 mg/kg
Canis familiaris [9] = assay: Time required for inotropic response at 0.80 mg/kg dose; range 45-60; type: functional, Canis lupus familiaris; details: dose 0.8 mg/kg
Cavia porcellus [10] = species on record: Cavia porcellus; assay: In vitro 50% increase in basal contractile force of paced guinea pig papillary muscle (insoluble); type: functional, organism-based; details: Muscle tissue
Canis familiaris [11] = assay: Time required for vasodilator response at 0.80 mg/kg dose; range 2-15; type: functional, Canis lupus familiaris; details: dose 0.8 mg/kg
Cavia porcellus [12] = species on record: Cavia porcellus; assay: In vitro 50% increase in basal contractile force of paced guinea pig papillary muscle (inactive); type: functional; details: Muscle tissue
Canis familiaris [13] = assay: Time required for inotropic response at 0.80 mg/kg dose; range 20-30; type: functional, Canis lupus familiaris; details: dose 0.8 mg/kg
Canis familiaris [14] = assay: Time required for vasodilator response at 0.80 mg/kg dose; range 15-30; type: functional, Canis lupus familiaris; details: dose 0.8 mg/kg
Canis familiaris [15] = assay: Time required for vasodilator response at 0.80 mg/kg dose; range 30-45; type: functional, Canis lupus familiaris; details: dose 0.8 mg/kg
Canis familiaris [16] = assay: Time required for inotropic response at 0.80 mg/kg dose; range 30-45; type: functional, Canis lupus familiaris; details: dose 0.8 mg/kg

Log IC50 (Phosphodiesterase 3): -4.4
SMILES: COc1cc([S+](C)[O-])ccc1-c1cn2ccnc(OC)c2n1 (stereo unspecified)
ED50 (Canis familiaris [1]): 0.09 mg/kg
pA50 (Cavia porcellus [2]): 4.82
ED10 (Canis familiaris [3]): 0.11 mg/kg
ED30 (Canis familiaris [4]): 1.17 mg/kg
Ratio [5]: 0.08
Duration (Canis familiaris [6]): 60 min
Duration (Canis familiaris [7]): 2 min

SMILES: COc1cc([S+](C)[O-])ccc1-c1cn2cccnc2n1 (stereo unspecified)
ED50 (Canis familiaris [1]): 2.4 mg/kg
pA50 (Cavia porcellus [2]): 4.63

SMILES: Cc1[nH]c(=O)c(C#N)cc1-c1ccncc1 [MILRINONE]
ED50 (Canis familiaris [1]): 0.02 mg/kg
ED10 (Canis familiaris [3]): 0.02 mg/kg
ED30 (Canis familiaris [4]): 0.06 mg/kg
Ratio [5]: 0.3
Duration (Canis familiaris [8]): 10 min
Duration (Canis familiaris [9]): 45 min

SMILES: COc1cc([S+](C)[O-])ccc1-c1nc2c(OC)nccc2[nH]1 (stereo unspecified)
ED50 (Canis familiaris [1]): 0.13 mg/kg
pA50 (Cavia porcellus [2]): 3.91

SMILES: COc1cc([S+](C)[O-])ccc1-c1nc2cccnc2[nH]1 (stereo unspecified) [SULMAZOLE]
ED50 (Canis familiaris [1]): 0.8 mg/kg
pA50 (Cavia porcellus [2]): 4.7
ED10 (Canis familiaris [3]): 0.5 mg/kg
ED30 (Canis familiaris [4]): 1.25 mg/kg
Duration (Canis familiaris [6]): 30 min
Duration (Canis familiaris [7]): 30 min

SMILES: COc1cc(OS(C)(=O)=O)ccc1-c1cn2ccnc(OC)c2n1
ED50 (Canis familiaris [1]): 0.07 mg/kg
ED10 (Canis familiaris [3]): 0.05 mg/kg
ED30 (Canis familiaris [4]): 0.06 mg/kg
pA50 (Cavia porcellus [10]): Insoluble
Duration (Canis familiaris [11]): 2 min
Ratio [5]: 1.2
Duration (Canis familiaris [9]): 45 min

SMILES: COc1cc(OS(C)(=O)=O)ccc1-c1cn2ccncc2n1
pA50 (Cavia porcellus [12]): inactive

SMILES: COc1cc(OS(C)(=O)=O)ccc1-c1nc2cc[nH]cc-2n1
ED50 (Canis familiaris [1]): 0.002 mg/kg
pA50 (Cavia porcellus [2]): <5

Log IC50 (Phosphodiesterase 3): -4.5
SMILES: COc1cc([S+](C)[O-])ccc1-c1nc2cnccc2[nH]1 (stereo unspecified) [ISOMAZOLE]
ED50 (Canis familiaris [1]): 0.06 mg/kg
Duration (Canis familiaris [13]): 20 min
pA50 (Cavia porcellus [2]): 4.64
ED10 (Canis familiaris [3]): 0.06 mg/kg
Duration (Canis familiaris [14]): 15 min
ED30 (Canis familiaris [4]): 0.19 mg/kg
Ratio [5]: 0.32

SMILES: COc1cc(C(N)=O)ccc1-c1cn2ccncc2n1
ED50 (Canis familiaris [1]): 0.02 mg/kg
pA50 (Cavia porcellus [2]): 4.68
ED10 (Canis familiaris [3]): 0.02 mg/kg
ED30 (Canis familiaris [4]): 0.05 mg/kg
Ratio [5]: 0.4
Duration (Canis familiaris [6]): >30 min
Duration (Canis familiaris [7]): <5 min

SMILES: COc1cc(C(N)=O)ccc1-c1cn2ccnc(OC)c2n1
ED50 (Canis familiaris [1]): 0.06 mg/kg
Duration (Canis familiaris [15]): 30 min
ED10 (Canis familiaris [3]): 0.06 mg/kg
ED30 (Canis familiaris [4]): 0.15 mg/kg
pA50 (Cavia porcellus [10]): Insoluble
Duration (Canis familiaris [16]): 30 min
Ratio [5]: 0.04

SMILES: COc1cc(C(N)=O)ccc1-c1nc2cc[nH]cc-2n1
ED50 (Canis familiaris [1]): 0.01 mg/kg
pA50 (Cavia porcellus [2]): 4.43

Log IC50 (Phosphodiesterase 3): -5
SMILES: COc1cc([S+](C)[O-])ccc1-c1cn2ccncc2n1 (stereo unspecified)
ED50 (Canis familiaris [1]): 0.75 mg/kg
pA50 (Cavia porcellus [2]): 5.39
ED10 (Canis familiaris [3]): 0.28 mg/kg
ED30 (Canis familiaris [4]): 0.03 mg/kg
Ratio [5]: 25
Duration (Canis familiaris [6]): 5 min
Duration (Canis familiaris [7]): >90 min
